Measured values from US20190292179A1 (BRISTOL-MYERS SQUIBB COMPANY, priority 2016, published 2019).
Structures can show the parent of a compound that is named as a salt.

Experiments:
HIS-TGFβR2 WT = HIS-TGFβR2 WT (Homo sapiens, UniProt P37173); assay: HTRF probe-displacement assay with HIS-TGFβR2 WT; type: binding; conditions: 1 nM HIS-TGFβR2 WT, labeled probe at Kd, 1 hour at room temperature
Protocol: The reaction is incubated for 1 hour at room temperature and the HTRF signal was measured on an Envision plate reader (Ex: 340 nm; Em: 520 nm/495 nm). Inhibition data were calculated by comparison to no enzyme control reactions for 100% inhibition and vehicle-only reactions for 0% inhibition. The final concentration of reagents in the assay are 1 nM HIS-TGFβR1 T204D or HIS-TGFβR2 WT, 0.2 nM anti-HIS detection antibody, labeled small molecule probe (at Kd) and 0.5% DMSO. Dose response curves were generated to determine the concentration required inhibiting 50% of kinase activity (IC50). Compounds were dissolved at 10 mM in dimethylsulfoxide (DMSO) and evaluated at eleven concentrations. IC50 values were derived by non-linear regression analysis.

HIS-TGFβR1 T204D = target: T1, HIS-TGFβR1 T204D (Homo sapiens, UniProt P36897, T204D); assay: HTRF probe-displacement assay with HIS-TGFβR1 T204D; type: binding; conditions: 1 nM HIS-TGFβR1 T204D, labeled probe at Kd, 1 hour at room temperature
T1 sequence (P36897 34-503 T204D): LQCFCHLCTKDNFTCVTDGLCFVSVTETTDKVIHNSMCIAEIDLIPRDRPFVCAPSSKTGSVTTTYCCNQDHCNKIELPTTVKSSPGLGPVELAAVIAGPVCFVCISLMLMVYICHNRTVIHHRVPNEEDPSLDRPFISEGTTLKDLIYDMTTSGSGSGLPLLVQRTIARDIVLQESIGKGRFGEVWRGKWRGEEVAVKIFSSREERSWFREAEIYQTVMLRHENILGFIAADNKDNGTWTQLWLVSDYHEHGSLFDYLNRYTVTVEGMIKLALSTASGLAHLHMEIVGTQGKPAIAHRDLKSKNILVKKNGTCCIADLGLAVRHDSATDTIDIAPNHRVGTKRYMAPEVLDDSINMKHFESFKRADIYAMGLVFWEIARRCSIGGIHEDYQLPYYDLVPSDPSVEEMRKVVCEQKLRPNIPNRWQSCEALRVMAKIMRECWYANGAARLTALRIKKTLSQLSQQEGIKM
In short: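 Binding read as HTRF probe displacement with 1 nM HIS-tagged kinase, 0.2 nM anti-HIS antibody, labelled probe at Kd and 0.5% DMSO, 1 h at room temperature (Ex 340, Em 520/495 nm). Eleven-point dose response normalised to no-enzyme and vehicle controls; IC50 from non-linear regression.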

HIS-TGFβR2 WT, sequence (P37173 23-567): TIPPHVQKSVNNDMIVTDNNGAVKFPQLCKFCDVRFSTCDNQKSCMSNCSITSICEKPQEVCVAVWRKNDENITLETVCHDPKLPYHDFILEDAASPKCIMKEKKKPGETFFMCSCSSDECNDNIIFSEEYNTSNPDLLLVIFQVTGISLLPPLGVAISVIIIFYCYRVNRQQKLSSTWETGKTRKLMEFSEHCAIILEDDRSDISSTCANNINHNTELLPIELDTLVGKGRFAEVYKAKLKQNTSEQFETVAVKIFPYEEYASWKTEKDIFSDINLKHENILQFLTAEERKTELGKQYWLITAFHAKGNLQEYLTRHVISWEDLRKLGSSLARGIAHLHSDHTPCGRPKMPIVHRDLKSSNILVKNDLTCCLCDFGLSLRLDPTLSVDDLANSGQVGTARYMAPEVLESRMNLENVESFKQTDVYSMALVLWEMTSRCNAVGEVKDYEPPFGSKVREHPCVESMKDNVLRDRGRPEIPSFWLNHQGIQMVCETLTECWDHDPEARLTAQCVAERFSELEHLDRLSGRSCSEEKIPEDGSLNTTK

Compound	IC50 (HIS-TGFβR2 WT)	IC50 (HIS-TGFβR1 T204D)
Cc1cccc(-c2nn(C)cc2-c2ccc3ncc(C#N)n3n2)n1 [Example 25, 6-(1-methyl-3-(6-methylpyridin-2-yl)-1H-pyrazol-4-yl)imidazo[1,2-b]pyridazine-3-carbonitrile]	9.74 µM	0.003 µM
Fc1ccc(-c2n[nH]c(C3CC3)c2-c2ccc3nccn3n2)cc1 [Example 87, 6-(5-cyclopropyl-3-(4-fluorophenyl)-1H-pyrazol-4-yl)imidazo [1,2-b]pyridazine]	6.9 µM	0.002 µM
Fc1ccc(-c2n[nH]cc2-c2ccc3nccn3n2)cc1Cl [Example 39, 6-(3-(3-chloro-4-fluorophenyl)-1H-pyrazol-4-yl)imidazo[1,2-b]pyridazine, TFA]	1.65 µM	0.004 µM
Cc1cccc(-c2nn(C)c(C(C)C)c2-c2ccc3nccn3c2)n1 [Example 119, 6-(5-isopropyl-1-methyl-3-(6-methylpyridin-2-yl)-1H-pyrazol-4-yl)imidazo[1,2-a]pyridine]	4.95 µM	0.003 µM
CC(C)c1[nH]nc(-c2ccc(F)cc2)c1-c1ccc2ncc(C#N)n2c1 [Example 67, 6-(3-(4-fluorophenyl)-5-isopropyl-1H-pyrazol-4-yl)imidazo[1,2-a]pyridine-3-carbonitrile]	11.1 µM	0.004 µM
CC(=O)Nc1cc(-c2c[nH]nc2-c2ccc(F)cc2)cn2ccnc12 [Example 33, N-(6-(3-(4-fluorophenyl)-1H-pyrazol-4-yl)imidazo[1,2-a]pyridin-8-yl)acetamide]	7.06 µM	0.811 µM
NC(=O)c1cnc2ccc(-c3c(-c4ccc(Cl)cc4)n[nH]c3C3CC3)cn12 [Example 97, 6-(3-(4-chlorophenyl)-5-cyclopropyl-1H-pyrazol-4-yl)imidazo[1,2-a]pyridine-3-carboxamide]	6.36 µM	0.001 µM
O=C(NC1CC1)c1cnc2ccc(-c3c(-c4ccc(F)cc4)n[nH]c3C3CC3)cn12 [Example 92, N-cyclopropyl-6-(5-cyclopropyl-3-(4-fluorophenyl)-1H-pyrazol-4-yl)imidazo[1,2-a]pyridine-3-carboxamide]	2.65 µM	0.001 µM
CC(C)(C)Nc1cnc2ccc(-c3c[nH]nc3-c3ccc(F)cc3)cn12 [Example 15, N-(tert-butyl)-6-(3-(4-fluorophenyl)-1H-pyrazol-4-yl)imidazo[1,2-a]pyridin-3-amine]	12.7 µM	0.502 µM
OCc1[nH]nc(-c2ccc(F)cc2)c1-c1ccc2nccn2c1 [Example 134, (3-(4-fluorophenyl)-4-(imidazo[1,2-a]pyridin-6-yl)-1H-pyrazol-5-yl)methanol]	13.1 µM	0.027 µM
Cc1cc(-c2n[nH]cc2-c2ccc3nccn3c2)ccc1F [Example 48, 6-(3-(4-fluoro-3-methylphenyl)-1H-pyrazol-4-yl)imidazo[1,2-a]pyridine]	4.12 µM	0.002 µM
Fc1ccc(-c2n[nH]c(C3CC3)c2-c2ccc3nccn3c2)cc1 [Example 86, 6-(5-cyclopropyl-3-(4-fluorophenyl)-1H-pyrazol-4-yl)imidazo [1,2-a]pyridine]	14.6 µM	0.004 µM
Cc1cccc(-c2n[nH]c(CO)c2-c2ccc3nccn3c2)n1 [Example 141, (4-(imidazo[1,2-a]pyridin-6-yl)-3-(6-methylpyridin-2-yl)-1H-pyrazol-5-yl)methanol]	4.47 µM	0.001 µM
Cc1cc(-c2n[nH]c(C(C)C)c2-c2ccc3ncc(C#N)n3c2)ccc1F [Example 78, 6-(3-(4-fluoro-3-methylphenyl)-5-isopropyl-1H-pyrazol-4-yl)imidazo[1,2-a]pyridine-3-carbonitrile]	6.67 µM	0.001 µM

Now those with a lower IC50 (HIS-TGFβR2 WT), led by results:

IC50 (HIS-TGFβR2 WT)	IC50 (HIS-TGFβR1 T204D)	Compound
1.54 µM	0.002 µM	Cn1cc(-c2ccc3ncc(C(N)=O)n3c2)c(-c2ccc(F)cc2)n1 [Example 38, 6-(3-(4-fluorophenyl)-1-methyl-1H-pyrazol-4-yl)imidazo[1,2-a]pyridine-3-carboxamide]
1.45 µM	0.001 µM	Cc1cccc(-c2n[nH]cc2-c2ccc3ncc(C#N)n3n2)n1 [Example 20, 6-(3-(6-methylpyridin-2-yl)-1H-pyrazol-4-yl)imidazo[1,2-b]pyridazine-3-carbonitrile]
0.963 µM	0.002 µM	CC(C)c1c(-c2ccc3ncc(C(N)=O)n3c2)c(-c2ccc(F)cc2)nn1C [Example 72]
0.806 µM	0.001 µM	Cn1nc(-c2ccc(F)cc2)c(-c2ccc3ncc(C(N)=O)n3c2)c1C1CC1 [Example 94, 6-(5-cyclopropyl-3-(4-fluorophenyl)-1-methyl-1H-pyrazol-4-yl)imidazo[1,2-a]pyridine-3-carboxamide]
0.627 µM	0.001 µM	Cc1cccc(-c2nn(C)cc2-c2ccc3ncc(C(N)=O)n3c2)n1 [Example 24, 6-(1-methyl-3-(6-methylpyridin-2-yl)-1H-pyrazol-4-yl)imidazo[1,2-a]pyridine-3-carboxamide]
0.577 µM	0.002 µM	NC(=O)c1cnc2ccc(-c3c(-c4ccc(F)cc4)nn4c3COCC4)cn12 [Example 111, 6-(2-(4-fluorophenyl)-6,7-dihydro-4H-pyrazolo[5,1-c][1,4]oxazin-3-yl)imidazo[1,2-a]pyridine-3-carboxamide]
0.469 µM	0.001 µM	Cc1cccc(-c2n[nH]c(C3CC3)c2-c2ccc3nccn3c2)n1 [Example 123, 6-(5-cyclopropyl-3-(6-methylpyridin-2-yl)-1H-pyrazol-4-yl)imidazo[1,2-a]pyridine]
0.369 µM	0.002 µM	N#Cc1cnc2ccc(-c3cn(CCO)nc3-c3ccc(F)c(Cl)c3)cn12 [Example 44, 6-(3-(3-chloro-4-fluorophenyl)-1-(2-hydroxyethyl)-1H-pyrazol-4-yl)imidazo[1,2-a]pyridine-3-carbonitrile]
0.277 µM	0.001 µM	Cc1[nH]nc(-c2cccc(F)n2)c1-c1ccc2ncc(C#N)n2c1 [Example 66, 6-(3-(6-fluoropyridin-2-yl)-5-methyl-1H-pyrazol-4-yl)imidazo [1,2-a]pyridine-3-carbonitrile]
0.165 µM	0.042 µM	Cn1cc(-c2ccc3ncc(C#N)n3c2)c(-c2ccc(F)cc2)n1 [Example 37, 6-(3-(4-fluorophenyl)-1-methyl-1H-pyrazol-4-yl)imidazo[1,2-a]pyridine-3-carbonitrile]
0.136 µM	0.001 µM	Cc1cc(-c2n[nH]c(C(C)C)c2-c2ccc3ncc(C(N)=O)n3c2)ccc1F [Example 79, 6-(3-(4-fluoro-3-methylphenyl)-5-isopropyl-1H-pyrazol-4-yl)imidazo[1,2-a]pyridine-3-carboxamide]
0.128 µM	0.001 µM	CCc1c(-c2ccc3ncc(C(N)=O)n3c2)c(-c2cccc(C)n2)nn1C [Example 127, 6-(5-ethyl-1-methyl-3-(6-methylpyridin-2-yl)-1H-pyrazol-4-yl)imidazo[1,2-a]pyridine-3-carboxamide]
0.101 µM	0.007 µM	N#Cc1cnc2ccc(-c3c[nH]nc3-c3ccc(F)cc3)nn12 [Example 13, 6-(3-(4-fluorophenyl)-1H-pyrazol-4-yl)imidazo [1,2-b]pyridazine-3-carbonitrile]
0.094 µM	0.001 µM	Cc1cc(-c2n[nH]c(C3CC3)c2-c2ccc3ncc(C(N)=O)n3c2)ccc1F [Example 100, 6-(5-cyclopropyl-3-(4-fluoro-3-methylphenyl)-1H-pyrazol-4-yl)imidazo[1,2-a]pyridine-3-carboxamide]
0.075 µM	0.001 µM	Cc1cccc(-c2nn(CC(F)F)cc2-c2ccc3ncc(C(N)=O)n3c2)n1 [Example 28, 6-(1-(2,2-difluoroethyl)-3-(6-methylpyridin-2-yl)-1H-pyrazol-4-yl)imidazo[1,2-a]pyridine-3-carboxamide]
0.013 µM	0.001 µM	CCc1[nH]nc(-c2cccc(C)n2)c1-c1ccc2ncc(C(N)=O)n2c1 [Example 125, 6-(5-ethyl-3-(6-methylpyridin-2-yl)-1H-pyrazol-4-yl)imidazo[1,2-a]pyridine-3-carboxamide]
0.004 µM	0.001 µM	Cc1cccc(-c2n[nH]c(C3CC3)c2-c2ccc3ncc(C(N)=O)n3c2)n1 [Example 122, 6-(5-cyclopropyl-3-(6-methylpyridin-2-yl)-1H-pyrazol-4-yl)imidazo[1,2-a]pyridine-3-carboxamide]
